These results are taken from patent US10344060B2 (priority 2013, dated 2019).

What all share (experiment): cell-based
The target in one experiment is hNav1.6 (Homo sapiens, UniProt Q9UQD0). The experiment is classed as cell-based. The conditions noted are these: PatchXpress.
The target of experiment [1] is T1, hNav1.7 (Homo sapiens, UniProt Q15858). The conditions noted are these: ratio of IonWorks Quattro IC50 values. On the technique in general: Patch clamp records ionic current or voltage across a cell membrane.
T1 sequence (Q15858 whole entry): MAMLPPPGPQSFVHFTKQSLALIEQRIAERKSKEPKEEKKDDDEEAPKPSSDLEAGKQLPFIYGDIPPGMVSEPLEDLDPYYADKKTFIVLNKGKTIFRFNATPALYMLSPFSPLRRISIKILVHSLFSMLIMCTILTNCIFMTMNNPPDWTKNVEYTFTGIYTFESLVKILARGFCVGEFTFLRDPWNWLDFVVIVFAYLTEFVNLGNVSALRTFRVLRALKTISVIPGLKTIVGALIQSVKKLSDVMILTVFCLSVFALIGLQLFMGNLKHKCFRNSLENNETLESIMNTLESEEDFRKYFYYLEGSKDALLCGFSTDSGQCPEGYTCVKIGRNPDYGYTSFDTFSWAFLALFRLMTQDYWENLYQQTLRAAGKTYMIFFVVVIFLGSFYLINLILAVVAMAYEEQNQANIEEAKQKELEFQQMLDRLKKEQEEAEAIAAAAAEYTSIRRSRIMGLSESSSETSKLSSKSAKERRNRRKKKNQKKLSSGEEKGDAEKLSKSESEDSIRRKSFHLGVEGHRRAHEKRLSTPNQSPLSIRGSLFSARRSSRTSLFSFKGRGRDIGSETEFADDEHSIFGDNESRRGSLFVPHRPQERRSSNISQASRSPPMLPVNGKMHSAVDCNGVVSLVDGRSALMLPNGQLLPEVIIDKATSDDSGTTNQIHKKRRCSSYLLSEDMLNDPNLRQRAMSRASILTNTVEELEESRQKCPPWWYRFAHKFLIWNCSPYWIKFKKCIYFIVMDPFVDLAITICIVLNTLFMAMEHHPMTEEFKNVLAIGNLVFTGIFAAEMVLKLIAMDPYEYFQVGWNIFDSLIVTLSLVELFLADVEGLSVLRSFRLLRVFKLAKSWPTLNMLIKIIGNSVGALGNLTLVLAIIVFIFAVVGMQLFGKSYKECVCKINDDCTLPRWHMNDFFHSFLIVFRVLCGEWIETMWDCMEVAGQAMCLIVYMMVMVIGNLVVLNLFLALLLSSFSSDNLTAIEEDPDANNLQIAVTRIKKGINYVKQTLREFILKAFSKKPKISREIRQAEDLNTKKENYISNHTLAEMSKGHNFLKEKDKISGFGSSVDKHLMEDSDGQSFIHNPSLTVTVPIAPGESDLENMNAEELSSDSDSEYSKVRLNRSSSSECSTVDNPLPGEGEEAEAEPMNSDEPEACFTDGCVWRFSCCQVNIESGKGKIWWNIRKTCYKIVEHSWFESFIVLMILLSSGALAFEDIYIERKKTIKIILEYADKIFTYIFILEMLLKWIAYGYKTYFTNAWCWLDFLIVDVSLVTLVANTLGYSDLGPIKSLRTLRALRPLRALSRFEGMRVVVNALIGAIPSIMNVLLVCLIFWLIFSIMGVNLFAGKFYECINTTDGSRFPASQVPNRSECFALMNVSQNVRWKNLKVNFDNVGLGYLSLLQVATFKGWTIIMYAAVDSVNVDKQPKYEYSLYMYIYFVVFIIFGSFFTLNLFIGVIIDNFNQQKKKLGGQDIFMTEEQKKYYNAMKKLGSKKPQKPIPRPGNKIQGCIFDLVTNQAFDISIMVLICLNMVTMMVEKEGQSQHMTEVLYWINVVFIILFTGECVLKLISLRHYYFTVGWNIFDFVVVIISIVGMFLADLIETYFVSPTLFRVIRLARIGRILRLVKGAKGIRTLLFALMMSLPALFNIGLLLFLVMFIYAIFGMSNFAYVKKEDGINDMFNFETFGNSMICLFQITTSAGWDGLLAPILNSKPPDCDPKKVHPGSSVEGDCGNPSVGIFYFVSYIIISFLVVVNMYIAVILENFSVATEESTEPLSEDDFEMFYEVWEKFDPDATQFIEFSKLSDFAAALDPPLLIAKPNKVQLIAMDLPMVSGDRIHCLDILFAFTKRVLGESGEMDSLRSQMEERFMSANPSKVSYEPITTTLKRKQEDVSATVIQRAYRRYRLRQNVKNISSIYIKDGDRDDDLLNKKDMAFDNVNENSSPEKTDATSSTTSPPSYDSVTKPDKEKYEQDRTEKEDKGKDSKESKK
Experiment [2] deals with T1, hNav1.7. Format: cell-based. To be noted: ratio of PX tonic IC50 values; Table 11.

“And” between values parts separate entries of the source, which are not always exact repeats. Identical values can stand only once.

Chain of hNav1.6 (Q9UQD0 whole entry): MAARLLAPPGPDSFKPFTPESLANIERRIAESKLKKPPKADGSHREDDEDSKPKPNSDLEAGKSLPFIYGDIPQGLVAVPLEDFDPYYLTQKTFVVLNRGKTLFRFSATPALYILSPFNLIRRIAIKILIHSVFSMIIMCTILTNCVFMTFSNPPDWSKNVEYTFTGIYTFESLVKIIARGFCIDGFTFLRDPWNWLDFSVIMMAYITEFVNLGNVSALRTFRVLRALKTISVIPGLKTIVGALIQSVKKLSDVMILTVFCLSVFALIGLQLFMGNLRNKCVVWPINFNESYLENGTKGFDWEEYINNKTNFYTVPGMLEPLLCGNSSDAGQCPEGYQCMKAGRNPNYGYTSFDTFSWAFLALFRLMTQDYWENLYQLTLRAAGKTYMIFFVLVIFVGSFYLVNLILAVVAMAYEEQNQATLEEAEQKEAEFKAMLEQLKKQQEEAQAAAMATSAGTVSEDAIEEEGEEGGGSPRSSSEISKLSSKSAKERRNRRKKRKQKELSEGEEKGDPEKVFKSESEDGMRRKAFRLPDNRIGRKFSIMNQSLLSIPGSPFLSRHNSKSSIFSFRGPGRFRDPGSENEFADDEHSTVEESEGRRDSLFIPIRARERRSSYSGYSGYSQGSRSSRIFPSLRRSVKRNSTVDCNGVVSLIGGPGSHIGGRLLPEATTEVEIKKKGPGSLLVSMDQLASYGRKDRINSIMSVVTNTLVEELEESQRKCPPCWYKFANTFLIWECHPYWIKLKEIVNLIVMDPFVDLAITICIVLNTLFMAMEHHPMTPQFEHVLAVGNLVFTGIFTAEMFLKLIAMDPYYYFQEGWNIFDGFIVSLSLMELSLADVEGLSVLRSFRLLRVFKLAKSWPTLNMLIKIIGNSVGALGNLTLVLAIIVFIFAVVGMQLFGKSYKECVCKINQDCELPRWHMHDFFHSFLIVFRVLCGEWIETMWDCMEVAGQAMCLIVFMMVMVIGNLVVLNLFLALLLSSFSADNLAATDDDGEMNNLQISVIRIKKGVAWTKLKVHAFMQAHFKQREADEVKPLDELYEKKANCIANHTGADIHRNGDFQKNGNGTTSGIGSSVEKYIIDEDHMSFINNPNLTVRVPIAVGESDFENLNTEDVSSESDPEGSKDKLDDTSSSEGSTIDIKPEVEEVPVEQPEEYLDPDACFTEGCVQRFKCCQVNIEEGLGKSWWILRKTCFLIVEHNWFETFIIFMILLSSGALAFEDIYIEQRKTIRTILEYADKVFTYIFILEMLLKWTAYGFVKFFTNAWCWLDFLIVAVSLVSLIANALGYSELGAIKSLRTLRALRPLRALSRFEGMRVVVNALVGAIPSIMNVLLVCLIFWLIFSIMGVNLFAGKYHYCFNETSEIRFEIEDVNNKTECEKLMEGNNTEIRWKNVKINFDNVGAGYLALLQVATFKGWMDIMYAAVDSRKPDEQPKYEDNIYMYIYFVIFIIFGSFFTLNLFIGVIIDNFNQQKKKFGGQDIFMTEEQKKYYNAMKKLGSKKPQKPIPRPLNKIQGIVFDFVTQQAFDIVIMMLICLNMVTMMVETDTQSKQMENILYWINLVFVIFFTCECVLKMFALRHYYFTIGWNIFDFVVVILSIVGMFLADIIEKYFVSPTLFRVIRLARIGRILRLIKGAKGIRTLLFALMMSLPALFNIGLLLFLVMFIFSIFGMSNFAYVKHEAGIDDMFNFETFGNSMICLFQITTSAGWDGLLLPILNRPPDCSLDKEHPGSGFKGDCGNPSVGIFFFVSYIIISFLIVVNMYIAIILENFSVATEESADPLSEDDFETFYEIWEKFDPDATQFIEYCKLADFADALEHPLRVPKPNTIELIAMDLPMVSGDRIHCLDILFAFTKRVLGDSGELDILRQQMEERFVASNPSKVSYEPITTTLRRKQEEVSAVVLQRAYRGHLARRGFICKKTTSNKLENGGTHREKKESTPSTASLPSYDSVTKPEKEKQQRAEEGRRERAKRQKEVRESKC

As for `CC[C@H](C)[C@H](NC(=O)[C@H](CCC(=O)O)NC(=O)[C@H](CCCCN)NC(=O)[C@H](CCCNC(=N)N)NC(=O)[C@@H]1CSSC[C@@H]2NC(=O)[C@H](C)NC(=O)[C@H](CCCNC(=N)N)NC(=O)[C@H](CCCCN)NC(=O)[C@H](CO)NC(=O)[C@H](CC(=O)O)NC(=O)[C@@H]3CSSC[C@H](NC(=O)[C@H](CCCNC(=N)N)NC(=O)[C@H](CC(C)C)NC(=O)CNC(=O)[C@H](CCC(=O)O)NC(=O)[C@H](CSSC[C@H](NC(=O)[C@@H](N)Cc4ccc(O)cc4)C(=O)N[C@@H](CCC(N)=O)C(=O)N[C@@H](CCCCN)C(=O)N[C@@H](Cc4c[nH]c5ccccc45)C(=O)N[C@@H](CCSC)C(=O)N[C@@H](Cc4c[nH]c5ccccc45)C(=O)N[C@@H]([C@@H](C)O)C(=O)N3)NC2=O)C(=O)N[C@@H](CCCCN)C(=O)N[C@@H](CC(C)C)C(=O)N[C@@H](Cc2c[nH]c3ccccc23)C(=O)N1)C(N)=O` [SEQ ID NO: 69, [Glu28]JzTx-V(1-29)], on hNav1.6, the “selectivity for Nav1.7 over Nav1.6” value came to 437 fold.

Turning to `CC[C@H](C)[C@H](NC(=O)[C@@H](NC(=O)[C@H](CCCCN)NC(=O)[C@H](CCCNC(=N)N)NC(=O)[C@@H]1CSSC[C@@H]2NC(=O)[C@H](C)NC(=O)[C@H](CCCNC(=N)N)NC(=O)[C@H](CCCCN)NC(=O)[C@H](CO)NC(=O)[C@H](CC(=O)O)NC(=O)[C@@H]3CSSC[C@H](NC(=O)CNC(=O)[C@H](CC(C)C)NC(=O)CNC(=O)[C@H](CCC(=O)O)NC(=O)[C@H](CSSC[C@H](NC(=O)[C@@H](N)Cc4ccc(O)cc4)C(=O)N[C@@H](CCC(N)=O)C(=O)N[C@@H](CCCCN)C(=O)N[C@@H](Cc4c[nH]c5ccccc45)C(=O)N[C@@H](CCSC)C(=O)N[C@@H](Cc4c[nH]c5ccccc45)C(=O)N[C@@H]([C@@H](C)O)C(=O)N3)NC2=O)C(=O)N[C@@H](CCCCN)C(=O)N[C@@H](CC(C)C)C(=O)N[C@@H](Cc2c[nH]c3ccccc23)C(=O)N1)[C@@H](C)CC)C(N)=O` [compound 121], the Nav1.4/Nav1.7 at hNav1.7 [1] (Nav1.4 over Nav1.7) is recorded as 29. Also, on hNav1.7 [2], the Nav1.4/Nav1.7 worked out at 25 and the Nav1.5/Nav1.7 stood at 1808.

In the case of `CC[C@H](C)[C@H](NC(=O)[C@@H](NC(=O)[C@H](CCCCN)NC(=O)[C@H](CCCNC(=N)N)NC(=O)[C@@H]1CSSC[C@@H]2NC(=O)[C@H](C)NC(=O)[C@H](CCCNC(=N)N)NC(=O)[C@H](CCCCN)NC(=O)[C@H](CO)NC(=O)[C@H](CC(=O)O)NC(=O)[C@@H]3CSSC[C@H](NC(=O)[C@H](Cc4ccc(O)cc4)NC(=O)[C@H](CC(C)C)NC(=O)CNC(=O)[C@H](CCC(=O)O)NC(=O)[C@H](CSSC[C@H](NC(=O)[C@@H](N)Cc4ccc(O)cc4)C(=O)N[C@@H](CCC(N)=O)C(=O)N[C@@H](CCCCN)C(=O)N[C@@H](Cc4c[nH]c5ccccc45)C(=O)N[C@@H](CCSC)C(=O)N[C@@H](Cc4c[nH]c5ccccc45)C(=O)N[C@@H]([C@@H](C)O)C(=O)N3)NC2=O)C(=O)N[C@@H](CCCCN)C(=O)N[C@@H](CC(C)C)C(=O)N[C@@H](Cc2c[nH]c3ccccc23)C(=O)N1)[C@@H](C)CC)C(N)=O` [compound 124], the Nav1.4/Nav1.7 on hNav1.7 [1] (Nav1.4 over Nav1.7) is 43. Further, at hNav1.7 [2], the Nav1.4/Nav1.7 came to 266 and the Nav1.5/Nav1.7 is on record as above 1695.

For the molecule `CC[C@H](C)[C@H](NC(=O)[C@@H](NC(=O)[C@H](CCCCN)NC(=O)[C@H](CCCNC(=N)N)NC(=O)[C@@H]1CSSC[C@@H]2NC(=O)[C@H](C)NC(=O)[C@H](CCCNC(=N)N)NC(=O)[C@H](CCCCN)NC(=O)[C@H](CO)NC(=O)[C@H](CC(=O)O)NC(=O)[C@@H]3CSSC[C@H](NC(=O)[C@H](CCC(=O)O)NC(=O)[C@H](CC(C)C)NC(=O)CNC(=O)[C@H](CCC(=O)O)NC(=O)[C@H](CSSC[C@H](NC(=O)[C@@H](N)Cc4ccc(O)cc4)C(=O)N[C@@H](CCC(N)=O)C(=O)N[C@@H](CCCCN)C(=O)N[C@@H](Cc4c[nH]c5ccccc45)C(=O)N[C@@H](CCSC)C(=O)N[C@@H](Cc4c[nH]c5ccccc45)C(=O)N[C@@H]([C@@H](C)O)C(=O)N3)NC2=O)C(=O)N[C@@H](CCCCN)C(=O)N[C@@H](CC(C)C)C(=O)N[C@@H](Cc2c[nH]c3ccccc23)C(=O)N1)C(C)C)C(N)=O` [compound 133], at hNav1.7 [1] (Nav1.4 over Nav1.7), the Nav1.4/Nav1.7 turned out to be 51. In addition, at hNav1.7 [2], the Nav1.4/Nav1.7 was 320 and the Nav1.5/Nav1.7 was 1341.

As for `CC[C@H](C)[C@H](NC(=O)[C@H](CCCNC(N)=O)NC(=O)[C@H](CCCCN)NC(=O)[C@H](CCCNC(=N)N)NC(=O)[C@@H]1CSSC[C@@H]2NC(=O)[C@H](C)NC(=O)[C@H](CCCNC(=N)N)NC(=O)[C@H](CCCCN)NC(=O)[C@H](CO)NC(=O)[C@H](CC(=O)O)NC(=O)[C@@H]3CSSC[C@H](NC(=O)[C@H](CCC(=O)O)NC(=O)[C@H](CC(C)C)NC(=O)CNC(=O)[C@H](CCC(=O)O)NC(=O)[C@H](CSSC[C@H](NC(=O)[C@@H](N)Cc4ccc(O)cc4)C(=O)N[C@@H](CCC(N)=O)C(=O)N[C@@H](CCCCN)C(=O)N[C@@H](Cc4c[nH]c5ccccc45)C(=O)N[C@@H](CCSC)C(=O)N[C@@H](Cc4c[nH]c5ccccc45)C(=O)N[C@@H]([C@@H](C)O)C(=O)N3)NC2=O)C(=O)N[C@@H](CCCCN)C(=O)N[C@@H](CC(C)C)C(=O)N[C@@H](Cc2c[nH]c3ccccc23)C(=O)N1)C(N)=O` [compound 135], the Nav1.4/Nav1.7 at hNav1.7 [1] (Nav1.4 over Nav1.7) was found to be 46. At hNav1.7 [2], the Nav1.4/Nav1.7 was found to be 1075 and the Nav1.5/Nav1.7 is on record as above 1786.

With `CCC[C@H](NC(=O)[C@H](CCCCN)NC(=O)[C@H](CCCNC(=N)N)NC(=O)[C@@H]1CSSC[C@@H]2NC(=O)[C@H](C)NC(=O)[C@H](CCCNC(=N)N)NC(=O)[C@H](CCCCN)NC(=O)[C@H](CO)NC(=O)[C@H](CC(=O)O)NC(=O)[C@@H]3CSSC[C@H](NC(=O)[C@H](CCC(=O)O)NC(=O)[C@H](CC(C)C)NC(=O)CNC(=O)[C@H](CCC(=O)O)NC(=O)[C@H](CSSC[C@H](NC(=O)[C@@H](N)Cc4ccc(O)cc4)C(=O)N[C@@H](CCC(N)=O)C(=O)N[C@@H](CCCCN)C(=O)N[C@@H](Cc4c[nH]c5ccccc45)C(=O)N[C@@H](CCSC)C(=O)N[C@@H](Cc4c[nH]c5ccccc45)C(=O)N[C@@H]([C@@H](C)O)C(=O)N3)NC2=O)C(=O)N[C@@H](CCCCN)C(=O)N[C@@H](CC(C)C)C(=O)N[C@@H](Cc2c[nH]c3ccccc23)C(=O)N1)C(=O)N[C@H](C(N)=O)[C@@H](C)CC` [compound 136], the Nav1.4/Nav1.7 at hNav1.7 [1] (Nav1.4 over Nav1.7) was 66 and 34. Moreover, at hNav1.7 [2], the Nav1.4/Nav1.7 turned out to be 405 and the Nav1.5/Nav1.7 turned out to be 611.

`CC[C@H](C)[C@H](NC(=O)[C@H](Cc1ccc(O)cc1)NC(=O)[C@H](CCCCN)NC(=O)[C@H](CCCNC(=N)N)NC(=O)[C@@H]1CSSC[C@@H]2NC(=O)[C@H](C)NC(=O)[C@H](CCCNC(=N)N)NC(=O)[C@H](CCCCN)NC(=O)[C@H](CO)NC(=O)[C@H](CC(=O)O)NC(=O)[C@@H]3CSSC[C@H](NC(=O)[C@H](CCC(=O)O)NC(=O)[C@H](CC(C)C)NC(=O)CNC(=O)[C@H](CCC(=O)O)NC(=O)[C@H](CSSC[C@H](NC(=O)[C@@H](N)Cc4ccc(O)cc4)C(=O)N[C@@H](CCC(N)=O)C(=O)N[C@@H](CCCCN)C(=O)N[C@@H](Cc4c[nH]c5ccccc45)C(=O)N[C@@H](CCSC)C(=O)N[C@@H](Cc4c[nH]c5ccccc45)C(=O)N[C@@H]([C@@H](C)O)C(=O)N3)NC2=O)C(=O)N[C@@H](CCCCN)C(=O)N[C@@H](CC(C)C)C(=O)N[C@@H](Cc2c[nH]c3ccccc23)C(=O)N1)C(N)=O` [compound 137]: the Nav1.4/Nav1.7 at hNav1.7 [1] (Nav1.4 over Nav1.7) is recorded as 41. In addition, at hNav1.7 [2], the Nav1.4/Nav1.7 is 1411 and the Nav1.5/Nav1.7 is 12667.

Consider `CC[C@H](C)[C@H](NC(=O)[C@H](Cc1ccc(O)cc1)NC(=O)[C@H](CCCCN)NC(=O)[C@H](CCCNC(=N)N)NC(=O)[C@@H]1CSSC[C@@H]2NC(=O)[C@H](C)NC(=O)[C@H](CCCNC(=N)N)NC(=O)[C@H](CCCCN)NC(=O)[C@H](CO)NC(=O)[C@H](CC(=O)O)NC(=O)[C@@H]3CSSC[C@H](NC(=O)[C@H](CCC(=O)O)NC(=O)[C@H](CC(C)C)NC(=O)CNC(=O)[C@H](CCC(=O)O)NC(=O)[C@H](CSSC[C@H](NC(=O)[C@@H](N)Cc4ccc(O)cc4)C(=O)N[C@@H](CCC(N)=O)C(=O)N[C@@H](CCCCN)C(=O)N[C@@H](Cc4ccc(I)cc4)C(=O)N[C@@H](CCSC)C(=O)N[C@@H](Cc4c[nH]c5ccccc45)C(=O)N[C@@H]([C@@H](C)O)C(=O)N3)NC2=O)C(=O)N[C@@H](CCCCN)C(=O)N[C@@H](CC(C)C)C(=O)N[C@@H](Cc2c[nH]c3ccccc23)C(=O)N1)C(N)=O` [compound 192], for which the Nav1.4/Nav1.7 on hNav1.7 [1] (Table 8) is given as 30. Moreover, on hNav1.7 [2], the Nav1.4/Nav1.7 is 78 and the Nav1.5/Nav1.7 is listed as above 455.

Take `CSCC[C@@H]1NC(=O)[C@H](Cc2c[nH]c3ccccc23)NC(=O)[C@H](CCCCN)NC(=O)[C@H](CCC(N)=O)NC(=O)[C@@H](NC(=O)[C@@H](N)Cc2ccc(O)cc2)CSSC[C@@H]2NC(=O)[C@@H]3CSSC[C@@H](C(=O)N[C@@H](CCCNC(=N)N)C(=O)N[C@@H](CCCCN)C(=O)N[C@@H](Cc4ccc(O)cc4)C(=O)N[C@@H](Cc4cccc5ccccc45)C(N)=O)NC(=O)[C@H](Cc4c[nH]c5ccccc45)NC(=O)[C@H](CC(C)C)NC(=O)[C@H](CCCCN)NC(=O)[C@H](CSSC[C@H](NC(=O)[C@H]([C@@H](C)O)NC(=O)[C@H](Cc4c[nH]c5ccccc45)NC1=O)C(=O)N[C@@H](CC(=O)O)C(=O)N[C@@H](CO)C(=O)N[C@@H](CCCCN)C(=O)N[C@@H](CCCNC(=N)N)C(=O)N[C@@H](C)C(=O)N3)NC(=O)[C@H](CCC(=O)O)NC(=O)[C@H](CC(C)C)NC(=O)CNC(=O)[C@H](CCC(=O)O)NC2=O` [compound 232]: the Nav1.4/Nav1.7 at hNav1.7 [1] (Table 8) is listed as 91. For the same molecule, at hNav1.7 [2], the Nav1.4/Nav1.7 is listed as 372 and the Nav1.5/Nav1.7 came out at 480.
